Data published in ChEMBL document CHEMBL3045779, “Microwave solvent-free condition synthesis and pharmacological evaluation of pyrano[3,2-c]quinolines” (2012).

Key:
Assay type in all cases: functional
Rattus norvegicus [1] = experiment: Anti-inflammatory activity inRattus norvegicus albino (rat) assessed as inhibition of carrageenan-induced paw edema at 100 mg/kg administered 1 hr prior to carrageenan-challenge measured after 3 hr by plethysmometric analysis relative to control
Rattus norvegicus [2] = experiment: Anti-inflammatory activity inRattus norvegicus albino (rat) assessed as inhibition of carrageenan-induced paw edema at 100 mg/kg administered 1 hr prior to carrageenan-challenge measured after 2 hr by plethysmometric analysis relative to control
Rattus norvegicus [3] = experiment: Anti-inflammatory activity inRattus norvegicus albino (rat) assessed as inhibition of carrageenan-induced paw edema at 100 mg/kg administered 1 hr prior to carrageenan-challenge measured after 1 hr by plethysmometric analysis relative to control
Escherichia coli [4] = experiment: Antibacterial activity against Escherichia coli at 100 ug/ml after 24 hr by paper disk diffusion method; conditions: read-out: IZ
Escherichia coli [5] = experiment: Antibacterial activity against Escherichia coli at 50 ug/ml after 24 hr by paper disk diffusion method; conditions: read-out: IZ
Staphylococcus aureus [6] = experiment: Antibacterial activity against Staphylococcus aureus at 100 ug/ml after 24 hr by paper disk diffusion method; conditions: read-out: IZ
Staphylococcus aureus [7] = experiment: Antibacterial activity against Staphylococcus aureus at 50 ug/ml after 24 hr by paper disk diffusion method; conditions: read-out: IZ

Compound | inhibition in vivo at 100 mg/kg (Rattus norvegicus [1]) | inhibition in vivo at 100 mg/kg (Rattus norvegicus [2]) | inhibition in vivo at 100 mg/kg (Rattus norvegicus [3]) | zone of inhibition at 100 µg/mL (Escherichia coli [4]) | zone of inhibition at 50 µg/mL (Escherichia coli [5]) | zone of inhibition at 100 µg/mL (Staphylococcus aureus [6]) | zone of inhibition at 50 µg/mL (Staphylococcus aureus [7])
CCOC(=O)C1=C(N)Oc2c(c(O)nc3ccccc23)C1c1ccccc1 (centres undefined) | 75.2% | 61.9% | 54.2% | 16.2 mm | 15.2 mm | 16.7 mm | 15.6 mm
CCOC(=O)C1=C(N)Oc2c(c(=O)[nH]c3ccc(C)cc23)C1c1ccccc1Cl (centres undefined) | 74.2% | 68.1% | 58.1% | 17.3 mm | 15.4 mm | 17.3 mm | 16.1 mm
CCOC(=O)C1=C(N)Oc2c(c(=O)[nH]c3ccc(C)cc23)C1c1cccc(Cl)c1 (centres undefined) | 75.5% | 69.7% | 56.4% | 15.2 mm | 14.1 mm | 15.7 mm | 14.6 mm
CCOC(=O)C1=C(N)Oc2c(c(=O)[nH]c3ccc(C)cc23)C1c1ccc(Cl)cc1 (centres undefined) | 77.7% | 70.3% | 59.4% | – | 15.4 mm | 18.5 mm | 15.8 mm
CCOC(=O)C1=C(N)Oc2c(c(=O)[nH]c3ccc(C)cc23)C1c1ccc(O)cc1 (centres undefined) | 69.2% | 70.4% | 57.1% | 18.2 mm | 16.2 mm | 19.7 mm | 17.6 mm
CCOC(=O)C1=C(N)Oc2c(c(=O)[nH]c3ccc(C)cc23)C1c1cccc([N+](=O)[O-])c1 (centres undefined) | 75.5% | 70.3% | 54.3% | 17.4 mm | 16.5 mm | 19.2 mm | 18.1 mm
CCOC(=O)C1=C(N)Oc2c(c(=O)[nH]c3ccc(C)cc23)C1c1ccccc1 (centres undefined) | 75.2% | 71.1% | 56.2% | 16.2 mm | 15.7 mm | – | 14.7 mm
CCOC(=O)C1=C(N)Oc2c(c(=O)[nH]c3ccccc23)C1c1ccccc1Cl (centres undefined) | 80.6% | 69.4% | 55.6% | 15 mm | 13.7 mm | 16.3 mm | 15.2 mm
CCOC(=O)C1=C(N)Oc2c(c(=O)[nH]c3ccccc23)C1c1cccc(Cl)c1 (centres undefined) | 75.9% | 68.5% | 57.6% | – | 14.1 mm | 15.7 mm | 15.4 mm
CCOC(=O)C1=C(N)Oc2c(c(=O)[nH]c3ccccc23)C1c1ccc(Cl)cc1 (centres undefined) | 80.7% | 66.1% | 56.2% | 16.2 mm | 15.2 mm | 16.7 mm | 16.3 mm
CCOC(=O)C1=C(N)Oc2c(c(=O)[nH]c3ccccc23)C1c1ccc(O)cc1 (centres undefined) | 75.2% | 63.4% | 58.4% | 17 mm | 15.7 mm | 17.6 mm | 16.9 mm
CCOC(=O)C1=C(N)Oc2c(c(=O)[nH]c3ccccc23)C1c1cccc([N+](=O)[O-])c1 (centres undefined) | 79.3% | 69% | 53.5% | 17 mm | 16.1 mm | – | 17.3 mm
CC1COc2c(N3CCN(C)CC3)c(F)cc3c(=O)c(C(=O)O)cn1c23 (centres undefined) [OFLOXACIN] | – | – | – | – | – | 24.3 mm | 21.2 mm
CN[C@@H]1[C@H](O[C@H]2[C@H](O[C@H]3[C@H](O)[C@@H](O)[C@H](N=C(N)N)[C@@H](O)[C@@H]3N=C(N)N)O[C@@H](C)[C@]2(O)C=O)O[C@@H](CO)[C@H](O)[C@H]1O [STREPTOMYCIN] | – | – | – | 25.2 mm | 20.1 mm | – | –
